Assay results: patent US10336702B2, “Pharmaceutically active compounds” (BERGENBIO ASA, priority 2015, dated 2019)

Columns and labels:
Akt1 = target: T1, Akt1 (Homo sapiens, UniProt P31749); test: Akt activation assay (PDK1-mediated activation, LANCE Ultra crosstide TR-FRET), Akt1; assay type: biochemical; conditions: read-out: Biological Assay 1 IC50 (nM) Akt1
T1 construct: unspecified tag, removed (detagged) (cleaved yes); purchased SignalChem and Proteros (Akt1); Merck Millipore (PDK1) 14-452 (PDK1); none given for Akt1
Experimental: (§1) Biological Assay 1: Akt Activation Assay
(§2) Addition of a Europium-labelled antibody specific to the phosphopeptide allows energy transfer from the Europium donor to the Ultra Ulight™ acceptor if close enough in proximity.
(§3) Full length active His6-tagged PDK1 was obtained from Merck Millipore (14-452).
(§4) 1× assay buffer (AB): 50 mM HEPES pH 7.5, 1 mM EGTA, 10 mM MgCl2, 0.01% Tween. Immediately before use, DTT to a concentration of 2 mM was added.
(§5) To prepare lipid vesicles: 1 mg/ml PtdIns(3,4,5)P3 solution (in 10 mM HEPES 7.5) was added to 16.7 mg/ml DOPS/DOPC mixture (in 10 mM HEPES pH 7.5) in a ratio of 1:8.3. MilliQ water was added to the solution to generate concentrations of 400 μM DOPS, 400 μM DOPC and 40 μM PtdIns(3,4,5)P3. The mixture was subjected to 5× freeze/thaw cycles and aliquots stored at −20° C.
(§6) 5 μL enzyme in 1×AB was incubated with 2.5 μL test compound. To start the reaction 2.5 μL reaction mix was added which consisted of PDK1, lipid preparations, crosstide and ATP in 1×AB. Final assay concentrations were as follows: 1% DMSO, 5 nM SignalChem Akt1/15 nM SignalChem Akt2/3 nM Signalchem Akt3/5 nM Proteros Akt1/5 nM proteros Akt2/5 nM Proteros Akt3, 5 nM PDK1, 5.5 μM DOPS, 5.5 μM DOPC, 0.55 μM PtdIns(3,4,5)P3, 100 μM ATP, 100 nM LANCE® Ultra Ulight™-Crosstide. After 30 min, the reaction was stopped using 5 μL 40 μM EDTA in 1× Detection buffer for 5 min. For detection, 5 μL 8 nM LANCE® Ultra Europium-anti-phospho-Crosstide antibody in 1× Detection buffer was added to each well and incubated for 1 h. Plates read with the EnVision® Multilabel Plate Reader, excitation at 320 nm and emission at 665 nm and 615 nm. Compound IC50 was determined using a 4-parameter equation.

Akt2 = target: T2, Akt2 (Homo sapiens, UniProt P31751); test: Akt activation assay (PDK1-mediated activation, LANCE Ultra crosstide TR-FRET), Akt2; assay type: biochemical; conditions: read-out: Biological Assay 1 IC50 (nM) Akt2
T2 construct: unspecified tag, removed (detagged) (cleaved yes); purchased SignalChem and Proteros (Akt2); Merck Millipore (PDK1) 14-452 (PDK1); none given for Akt2
Experimental: as §1, §2, §3, §4, §5, §6

Akt3 = target: T3, Akt3 (Homo sapiens, UniProt Q9Y243); test: Akt activation assay (PDK1-mediated activation, LANCE Ultra crosstide TR-FRET), Akt3; assay type: biochemical; conditions: read-out: Biological Assay 1 IC50 (nM) Akt3
T3 construct: unspecified tag, removed (detagged) (cleaved yes); purchased SignalChem and Proteros (Akt3); Merck Millipore (PDK1) 14-452 (PDK1); none given for Akt3
Experimental: as §1, §2, §3, §4, §5, §6

p-Akt2 in WM115 cells = target: T4, p-Akt2 in WM115 cells (Homo sapiens, UniProt P31751); test: Phospho-Akt cellular SureFire assay, p-Akt2 in WM115 cells; assay type: cell-based; conditions: insulin stimulated, read-out: Biological Assay 2 IC50 (nM) Akt2 WM115
T4 construct: SureFire assays to detect cellular p-Akt1, p-Akt2 and p-Akt3 levels in WM115 cells (Akt2/3) and LNCaP cells (Akt1); endogenous in cells; host or cells: WM115 (ECACC 91061232), insulin-stimulated
Source text: (§7) Biological Assay 2: Phospho-Akt (p-Akt) Cellular SureFire Assays
(§8) The following describes SureFire assays to detect cellular p-Akt1, p-Akt2 and p-Akt3 levels in WM115 cells (Akt2/3) and LNCaP cells (Akt1). In the case of Akt2 and Akt3, Streptavidin-coated donor beads capture a biotinylated anti-mouse antibody that in turn recognises a mouse total Akt antibody which is specific to each isoform. The protein A-conjugated acceptor beads capture an antibody that recognises the phosphoprotein. Similarly in the Akt1 kit, the donor and acceptor beads are used to capture each antibody pair consisting of an antibody that specifically recognises Akt1 as well as an antibody that recognises the phosphoprotein. In each case, close proximity of the beads allows energy transfer from donor to acceptor.
(§9) Custom kit from TGR/Perkin Elmer for Akt2/3 containing anti-(pThr308)Akt antibody and biotinylated anti-mouse capture antibody.
Total Akt2 antibody (NEB UK, 5239)
(§10) WM115 cells (ECACC, 91061232) cultured in MEM culture media (M2279) supplemented with 2 mM L-glutamine (G7513), 1% non-essential amino acids (M7145), 1% sodium pyruvate (S8636) and 10% FBS (F0804)
(§11) Cell treatment: 1×10^5 WM115 cells or 5×10^4 LNCaP cells were seeded into each well of a 96 well poly-D-Lysine coated tissue culture plate and incubated overnight at 37° C.+5% CO2. Media was removed from cells and replaced with assay buffer consisting of the full culture media described above but with 0.1% FBS instead of 10% FBS. Only WM115 cells were stimulated at 37° C.+5% CO2 for 10 min with 5 μL insulin at a final concentration of 100 nM. Cells were incubated with 5 μL of test compound at a final DMSO concentration of 0.3% for 15 min at 37° C.+5% CO2. Cell lysis was carried out according to kit instructions.
(§12) Assay format (performed in subdued lighting): 4 μL cell lysate and 5 μL reaction buffer were incubated together in the dark at room temperature for 2 h. Reaction buffer was supplemented with a 1/5 dilution of activation buffer, a 1/50 dilution of acceptor beads and in the case of the custom kits, antibodies were added at dilutions of 1/20,000 for Akt2 and 1/2,000 for Akt3.
(§13) 2 μL dilution buffer, supplemented with a 1/20 dilution of donor beads was added to each well and incubated for a further 2 h. Plates were read with the EnVision® Multilabel Plate Reader and using the AlphaScreen settings. Compound IC50 was determined using a 4-parameter equation.

p-Akt3 in WM115 cells = target: T5, p-Akt3 in WM115 cells (Homo sapiens, UniProt Q9Y243); test: Phospho-Akt cellular SureFire assay, p-Akt3 in WM115 cells; assay type: cell-based; conditions: insulin stimulated, read-out: Biological Assay 2 IC50 (nM) Akt3 WM115
T5 construct: SureFire assays to detect cellular p-Akt1, p-Akt2 and p-Akt3 levels in WM115 cells (Akt2/3) and LNCaP cells (Akt1); endogenous in cells; host or cells: WM115 (ECACC 91061232), insulin-stimulated
Source text: as §7, §8, §9
Total Akt3 antibody (R&D Systems MAB 1463)
as §10, §11, §12, §13

T4 sequence (P31751 whole entry): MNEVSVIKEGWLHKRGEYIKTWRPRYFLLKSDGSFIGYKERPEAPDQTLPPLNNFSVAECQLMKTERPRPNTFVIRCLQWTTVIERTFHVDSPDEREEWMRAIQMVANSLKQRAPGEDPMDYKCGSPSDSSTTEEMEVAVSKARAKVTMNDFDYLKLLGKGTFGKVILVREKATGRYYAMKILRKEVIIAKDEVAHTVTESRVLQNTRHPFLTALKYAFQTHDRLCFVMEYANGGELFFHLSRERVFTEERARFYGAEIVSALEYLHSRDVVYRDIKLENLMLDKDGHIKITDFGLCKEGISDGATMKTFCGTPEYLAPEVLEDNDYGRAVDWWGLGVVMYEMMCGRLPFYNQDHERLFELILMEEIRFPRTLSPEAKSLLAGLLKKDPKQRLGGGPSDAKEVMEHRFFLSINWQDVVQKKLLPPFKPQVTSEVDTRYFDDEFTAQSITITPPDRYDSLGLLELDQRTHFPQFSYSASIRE
T2 sequence (P31751 whole entry): as above
T3 sequence (Q9Y243 whole entry): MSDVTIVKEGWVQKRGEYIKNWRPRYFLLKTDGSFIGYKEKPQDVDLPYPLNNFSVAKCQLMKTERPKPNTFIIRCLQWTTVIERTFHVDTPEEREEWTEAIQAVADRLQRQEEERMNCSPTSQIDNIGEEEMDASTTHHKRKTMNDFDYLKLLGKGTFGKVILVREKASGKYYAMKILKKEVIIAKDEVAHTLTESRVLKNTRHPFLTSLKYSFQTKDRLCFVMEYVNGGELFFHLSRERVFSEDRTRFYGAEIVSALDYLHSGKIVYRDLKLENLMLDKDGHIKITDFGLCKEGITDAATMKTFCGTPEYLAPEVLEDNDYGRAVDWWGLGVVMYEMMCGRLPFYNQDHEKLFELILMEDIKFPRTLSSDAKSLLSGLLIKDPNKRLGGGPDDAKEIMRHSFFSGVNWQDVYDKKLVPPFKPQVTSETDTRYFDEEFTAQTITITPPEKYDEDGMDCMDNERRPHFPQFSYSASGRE
T5 sequence (Q9Y243 whole entry): as above
T1 sequence (P31749 whole entry): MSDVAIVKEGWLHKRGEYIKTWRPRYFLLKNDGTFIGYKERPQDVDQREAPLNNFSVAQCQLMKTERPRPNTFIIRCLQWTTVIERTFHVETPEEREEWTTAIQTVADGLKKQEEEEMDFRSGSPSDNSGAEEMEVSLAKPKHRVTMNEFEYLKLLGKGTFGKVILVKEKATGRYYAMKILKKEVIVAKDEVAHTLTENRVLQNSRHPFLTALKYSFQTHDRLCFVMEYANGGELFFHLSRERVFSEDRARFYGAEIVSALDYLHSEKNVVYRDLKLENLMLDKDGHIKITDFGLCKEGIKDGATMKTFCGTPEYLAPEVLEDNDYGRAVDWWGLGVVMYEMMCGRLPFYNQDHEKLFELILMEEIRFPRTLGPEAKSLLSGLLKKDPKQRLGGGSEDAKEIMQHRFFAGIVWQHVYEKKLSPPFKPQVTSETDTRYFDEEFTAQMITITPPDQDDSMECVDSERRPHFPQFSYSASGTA

| SMILES | IC50 (Akt1) [nM] | IC50 (Akt2) [nM] | IC50 (Akt3) [nM] | IC50 (p-Akt2 in WM115 cells) [nM] | IC50 (p-Akt3 in WM115 cells) [nM] |
| --- | --- | --- | --- | --- | --- |
| CC(=O)N(C)[C@H]1CC[C@H](CC(=O)Nc2cnc(-c3ccc(C4(N)CC(F)(F)C4)cc3)c(-c3ccccc3)c2)CC1 [Example 5] | 3900 | 800 | 110 | 3000 | 61 |
| CC(=O)N(C)[C@H]1CC[C@H](CC(=O)Nc2cnc(-c3ccc(C4(N)CC4)cc3)c(-c3ccccc3)c2)CC1 [Example 12, N-(6-(4-(1-aminocyclopropyl)phenyl)-5-phenylpyridin-3-yl)-2-(trans-4-(N-methylacetamido)cyclohexyl)acetamide] | – | 1000 | 84 | 2300 | 220 |
| NC1(c2ccc(-c3ncc(NC(=O)C(F)C4CCN(S(=O)(=O)C5CC5)CC4)cc3-c3ccccc3)cc2)CCC1 (stereo not drawn) [Example 40, N-(6-(4-(1-aminocyclobutyl)phenyl)-5-phenylpyridin-3-yl)-2-(1-(cyclopropylsulfonyl)piperidin-4-yl)-2-fluoroacetamide] | 9800 | 440 | 360 | 2900 | 220 |
| CC(=O)N(C)[C@H]1CC[C@H](CC(=O)Nc2cc(-c3ccccc3)c(-c3ccc([C@]4(N)C[C@H](F)C4)cc3)nn2)CC1 [Example 46, N-(6-(4-(trans-1-amino-3-fluorocyclobutyl)phenyl)-5-phenylpyridazin-3-yl)-2-(trans-4-(N-methylacetamido)cyclohexyl)acetamide] | 11000 | 440 | 100 | 2600 | 46 |
| CC(=O)N(C(C)C)[C@H]1CC[C@H](CC(=O)Nc2cnc(-c3ccc(C4(N)CCC4)cc3)c(-c3ccccc3)c2)CC1 [Example 49, N-(6-(4-(1-aminocyclobutyl)phenyl)-5-phenylpyridin-3-yl)-2-(trans-4-(N-isopropylacetamido)cyclohexyl)acetamide] | 6900 | 530 | 280 | 2900 | 140 |
| COC(=O)N(C)[C@H]1CC[C@H](CC(=O)Nc2cc(-c3ccsc3)c(-c3ccc([C@]4(N)C[C@](C)(O)C4)cc3)cn2)CC1 [Example 89, Methyl (trans-4-(2-((5-(4-(trans-1-amino-3-hydroxy-3-methylcyclobutyl)phenyl)-4-(thiophen-3-yl)pyridin-2-yl)amino)-2-oxoethyl)cyclohexyl)(methyl)carbamate] | – | – | – | 3000 | 57 |
| CCC(=O)N(C)[C@H]1CC[C@H](CC(=O)Nc2cnc(-c3ccc(C4(N)CC4)c(F)c3)c(-c3ccccc3)c2)CC1 [Example 90, N-(trans-4-(2-((6-(4-(1-aminocyclopropyl)-3-fluorophenyl)-5-phenylpyridin-3-yl)amino)-2-oxoethyl)cyclohexyl)-N-methylpropionamide] | – | 2500 | 120 | 6500 | 170 |
| CC(=O)N(C)[C@H]1CC[C@H](CC(=O)Nc2cc(-c3ccccc3F)c(-c3ccc([C@]4(N)C[C@](C)(O)C4)cc3)cn2)CC1 [Example 94, N-(5-(4-(trans-1-amino-3-hydroxy-3-methylcyclobutyl)phenyl)-4-(2-fluorophenyl)pyridin-2-yl)-2-(trans-4-(N-methylacetamido)cyclohexyl)acetamide] | 20000 | 120 | 11 | 550 | 13 |
| COC(=O)N(C)[C@H]1CC[C@H](CC(=O)Nc2cc(-c3ccccc3F)c(-c3ccc([C@]4(N)C[C@](C)(O)C4)cc3)cn2)CC1 [Example 96, Methyl (trans-4-(2-((5-(4-(trans-1-amino-3-hydroxy-3-methylcyclobutyl)phenyl)-4-(2-fluorophenyl)pyridin-2-yl)amino)-2-oxoethyl)cyclohexyl)(methyl)carbamate] | – | 140 | 18 | 1300 | 51 |
| CCN(C(C)=O)[C@H]1CC[C@H](CC(=O)Nc2cc(-c3ccccc3)c(-c3ccc([C@]4(N)C[C@](C)(O)C4)cc3)cn2)CC1 [Example 108, N-(5-(4-(trans-1-amino-3-hydroxy-3-methylcyclobutyl)phenyl)-4-phenylpyridin-2-yl)-2-(trans-4-(N-ethylacetamido)cyclohexyl)acetamide] | – | 220 | 10 | 670 | 16 |
| NC1(c2ccc(-c3ncc(NC(=O)C[C@H]4CC[C@H](NC(=O)C(F)F)CC4)cc3-c3ccccc3)cc2)CC1 [Example A42, N-(trans-4-(2-((6-(4-(1-aminocyclopropyl)phenyl)-5-phenylpyridin-3-yl)amino)-2-oxoethyl)cyclohexyl)-2,2-difluoroacetamide] | 6900 | 810 | 280 | – | – |
| CC(C)(C)C(=O)N[C@H]1CC[C@H](CC(=O)Nc2cnc(-c3ccc(C4(N)CC4)cc3)c(-c3ccccc3)c2)CC1 [Example A43, N-(trans-4-(2-((6-(4-(1-aminocyclopropyl)phenyl)-5-phenylpyridin-3-yl)amino)-2-oxoethyl)cyclohexyl)pivalamide] | > 22000 | 520 | 300 | – | – |
| COC(=O)N(C)C1CCC(CC(=O)Nc2cnc(-c3ccc(C4(N)CC(F)C4)cc3)c(-c3ccsc3)c2)CC1 (stereo not drawn) [Example A66, Methyl (trans-4-(2-((6-(4-(trans-1-amino-3-fluorocyclobutyl)phenyl)-5-(thiophen-3-yl)pyridin-3-yl)amino)-2-oxoethyl)cyclohexyl)(methyl)carbamate] | – | 1100 | 44 | 10000 | 420 |
| CC(=O)N(C)[C@H]1CC[C@H](CC(=O)Nc2cc(-c3ccsc3)c(-c3ccc(C4(N)CCC4)cc3)nn2)CC1 [Example A97, N-(6-(4-(1-aminocyclobutyl)phenyl)-5-(thiophen-3-yl)pyridazin-3-yl)-2-(trans-4-(N-methylacetamido)cyclohexyl)acetamide] | – | 430 | 9 | 3200 | 41 |
